# In patent US8492413B2, “Pharmaceutical combination of 5-fluorouracil and derivate of 1,4-dihydropyridine and its use in the treatment of cancer” (priority 2009, dated 2013):
# Where a name gives a salt, the structure may show the parent alone. Read-outs that look alike come from different tables or passages of the source.
# What was measured:
# [1] = system: human breast cancer cells MDA-MB-435s; assay: Cell viability of MDA-MB-435s cells, crystal violet staining assay, 72 h exposure; format: cell-based; conditions: for IC50: 72 h, read-out: IC50 (concentration causing 50% cell viability decrease), compound alone
# Procedure: Cell viability was measured using modified crystal violet staining (CVS) assay as described in [[…] et al., 1985]. In brief, cells were fixed with 1% glutaraldehyde for 15 minutes, washed with water and stained with 0.05% crystal violet for 15 minutes at room temperature. After removal of residual crystal violet by washing with tap water the crystal violet stain was eluted with ethanol sodium citrate (1:1) buffer, and absorbance at 540 nm was measured using a microplate reader. The IC50 values, corresponding to concentrations of compounds that cause 50% cell viability decrease, were calculated for individual compounds and their combinations and are summarized in Table 1.
# [2] = system: leukaemia P388, murine sarcoma 37 and Walker's carcinosarcome; conditions: cited from earlier work
structure (smiles),measurement,setting,value
"CC1=C(C(=O)OCC(=O)[O-])CC(C(=O)OCC(=O)[O-])=C(C)N1.[Na+].[Na+] [Carbatone, Disodium salt of carboxylate-methyl ester of 2,6-dimethyl-1,4-dihydropyridine-3,5-dicarboxylic acid]",Effect on the cytotoxic effect of 5-FU (in words),"[1]; combined treatment with 5-FU, MDA-MB-435s",synergistically potentiates the cytotoxic effect of 5-FU
same,IC50,"[1]; single agent, MDA-MB-435s",1.31 mM
same,"Effect on cytostatic activity of cyclophosphane, 5-fluorouracil and arabisosyl cytosine","[2]; against leukaemia P388, murine sarcoma 37 and Walker's carcinosarcome",potentiates the cytostatic activity
same,Antitumour activity of the compound itself,[2]; alone,exhibited no antitumour activity
same,Effect on cyclophosphane toxicity,[2]; mice,decreasing the cyclophosphane toxicity
"O=c1[nH]cc(F)c(=O)[nH]1 [Example 5-FU, 5-Fluorouracil]",IC50,"[1]; Homo sapiens, single agent, MDA-MB-435s",0.03 mM
"CC1=C(C(=O)OCC(=O)O)C(C)C(C(=O)OCC(=O)O)=C(C)N1 [disodium salt of 2,4,6-trimethyl-1,4-dihydropyridine-3,5-bis-carbonyloxyacetic acid]",IC50,"[1]; Homo sapiens, MDA-MB-435S",> 2.69 mM
"CCC1C(C(=O)OCC(=O)O)=C(C)NC(C)=C1C(=O)OCC(=O)O [disodium salt of 4-ethyl-2,6-dimethyl-1,4-dihydropyridine-3,5-bis-carbonyloxyacetic acid]",IC50,"[1]; Homo sapiens, MDA-MB-435S",> 2.1 mM
